Where two headings read alike, the source gives them in different places. Where a SMILES comes first, the peptide text is derived from it. The star is where a group is joined. Cbz = O=C(OCc1ccccc1)*
Experiments:
[1] = test system: SARS-CoV-2 pseudoviruses in cells expressing hACE2; test: microbe, parasite or virus in culture; assay type: cell-based; conditions: Severe acute respiratory syndrome coronavirus 2, HEK-293T, read-out: EC50 Pseudovirus entry assay hACE2
[2] = test system: SARS-CoV-2 pseudoviruses in cells expressing hACE2 plus TMPRSS2; test: microbe, parasite or virus in culture; assay type: cell-based; conditions: Severe acute respiratory syndrome coronavirus 2, HEK-293T, read-out: EC50 Pseudovirus entry assay hACE2+ TMPRSS2
thrombin = target: T1, thrombin (Homo sapiens, UniProt P00734); test: biochemical
T1 construct: purchased AnaSpec

chymotrypsin = assay type: biochemical, human
neutrophil elastase = target: T2, neutrophil elastase (Homo sapiens, UniProt P08246); test: biochemical
T2 construct: purchased Sigma-Aldrich
T2 sequence (P08246 30-267): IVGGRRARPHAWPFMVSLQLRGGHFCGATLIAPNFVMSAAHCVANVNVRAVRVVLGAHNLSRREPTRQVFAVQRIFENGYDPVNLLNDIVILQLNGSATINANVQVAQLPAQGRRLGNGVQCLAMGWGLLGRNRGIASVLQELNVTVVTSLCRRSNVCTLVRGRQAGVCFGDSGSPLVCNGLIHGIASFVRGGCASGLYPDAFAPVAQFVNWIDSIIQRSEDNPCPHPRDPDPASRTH

cathepsin B = target: T3, cathepsin B (Homo sapiens, UniProt P07858); test: biochemical
T3 construct: purchased Abcam

cathepsin D = target: T4, cathepsin D (Homo sapiens, UniProt P07339); test: biochemical
T4 construct: purchased Abcam

cathepsin G = target: T5, cathepsin G (Homo sapiens, UniProt P08311); test: biochemical
T5 construct: purchased Novus Biological
T5 sequence (P08311 21-255): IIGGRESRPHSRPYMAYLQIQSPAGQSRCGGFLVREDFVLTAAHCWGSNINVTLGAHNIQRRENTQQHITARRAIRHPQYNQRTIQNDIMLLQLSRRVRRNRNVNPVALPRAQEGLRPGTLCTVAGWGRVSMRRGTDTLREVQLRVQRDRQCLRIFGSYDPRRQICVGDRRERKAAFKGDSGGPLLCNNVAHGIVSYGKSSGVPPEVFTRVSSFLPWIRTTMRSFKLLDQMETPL

cathepsin L = target: T6, cathepsin L (Homo sapiens, UniProt P07711); test: biochemical
T6 construct: purchased AnaSpec

SARS-CoV-2 3CLpro [3] = target: T7, SARS-CoV-2 3CLpro (Severe acute respiratory syndrome coronavirus 2, UniProt P0DTD1); conditions: read-out: IC50 SARS-CoV-2 (3CLpro); cited from earlier work
MERS-CoV 3CLpro [4] = target: T8, MERS-CoV 3CLpro (Middle East respiratory syndrome-related coronavirus, UniProt K9N7C7); conditions: read-out: IC50 MERS-CoV (3CLpro); cited from earlier work
SARS-CoV-2 3CLpro [5] = target: T7, SARS-CoV-2 3CLpro; test: biochemical
MERS-CoV 3CLpro [6] = target: T8, MERS-CoV 3CLpro; test: biochemical
SARS-CoV-2 replicon [7] = test: microbe, parasite or virus in culture; assay type: cell-based; conditions: Severe acute respiratory syndrome coronavirus 2, read-out: EC50 SARS-CoV-2 replicon
SARS-CoV-2 replicon [8] = conditions: cited from earlier work

T6 sequence (P07711 114-333): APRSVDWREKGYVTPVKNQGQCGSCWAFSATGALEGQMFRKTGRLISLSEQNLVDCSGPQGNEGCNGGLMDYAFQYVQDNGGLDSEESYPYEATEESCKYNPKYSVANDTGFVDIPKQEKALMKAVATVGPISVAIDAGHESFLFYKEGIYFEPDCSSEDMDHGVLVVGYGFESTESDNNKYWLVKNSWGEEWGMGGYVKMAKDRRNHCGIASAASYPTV
T8 sequence (K9N7C7 3248-3553 limits assumed): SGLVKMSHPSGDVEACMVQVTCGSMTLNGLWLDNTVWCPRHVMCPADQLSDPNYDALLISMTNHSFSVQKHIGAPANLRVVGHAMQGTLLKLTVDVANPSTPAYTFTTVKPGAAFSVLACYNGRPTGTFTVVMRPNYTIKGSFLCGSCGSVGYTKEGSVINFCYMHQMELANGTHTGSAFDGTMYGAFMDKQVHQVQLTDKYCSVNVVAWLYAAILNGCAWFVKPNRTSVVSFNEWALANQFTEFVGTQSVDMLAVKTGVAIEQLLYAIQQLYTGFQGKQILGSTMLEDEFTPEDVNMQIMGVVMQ
T4 sequence (P07339 65-412): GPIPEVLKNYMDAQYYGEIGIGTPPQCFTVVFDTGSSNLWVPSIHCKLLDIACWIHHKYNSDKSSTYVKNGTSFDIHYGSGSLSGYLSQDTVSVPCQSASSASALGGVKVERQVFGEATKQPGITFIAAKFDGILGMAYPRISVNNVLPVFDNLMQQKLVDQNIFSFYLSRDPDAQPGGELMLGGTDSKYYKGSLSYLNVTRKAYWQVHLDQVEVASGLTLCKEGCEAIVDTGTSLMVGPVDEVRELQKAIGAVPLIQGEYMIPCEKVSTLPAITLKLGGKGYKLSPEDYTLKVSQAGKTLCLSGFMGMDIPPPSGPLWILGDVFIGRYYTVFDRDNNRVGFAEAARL

SMILES	EC50 [1]	EC50 [2]	IC50 (thrombin)	IC50 (chymotrypsin)	IC50 (neutrophil elastase)	IC50 (cathepsin B)	IC50 (cathepsin D)	IC50 (cathepsin G)	IC50 (cathepsin L)	IC50 (SARS-CoV-2 3CLpro [3])	IC50 (MERS-CoV 3CLpro [4])	IC50 (SARS-CoV-2 3CLpro [5])	IC50 (MERS-CoV 3CLpro [6])	EC50 (SARS-CoV-2 replicon [7])	EC50 (SARS-CoV-2 replicon [8])
COc1ccccc1C1CC1COC(=O)NC(CC(C)C)C(=O)NC(C=O)CC1CCNC1=O (stereo not shown) [11c]	130 ± 30 nM	> 50000 nM	> 50000 nM	> 50000 nM	> 50000 nM	310 ± 50 nM	> 50000 nM	> 50000 nM	30 ± 10 nM	140 ± 40 nM	120 ± 110 nM	–	–	–	–
CC(C)[C@H](NC(=O)OCc1ccccc1)C(=O)N[C@H](C=O)Cc1ccccc1 [MDL28170] (Cbz-Val-Phe-aldehyde)	10 ± 30 nM	> 50000 nM	–	–	–	–	–	–	–	–	–	> 50000 nM	> 50000 nM	> 50000 nM	–
CC(C)CC(NC(=O)OCC1CC1c1cccc(F)c1)C(=O)NC(C=O)CC1CCNC1=O (stereo not shown) [5c]	60 ± 30 nM	> 50000 nM	> 50000 nM	> 50000 nM	> 50000 nM	240 ± 50 nM	> 50000 nM	> 50000 nM	30 ± 10 nM	180 ± 30 nM	80 ± 30 nM	–	–	–	12 nM
N=C(N)c1ccc2cc(OC(=O)c3ccc(N=C(N)N)cc3)ccc2c1 [Nafamostat]	> 50000 nM	–	–	–	–	–	–	–	–	–	–	> 50000 nM	> 50000 nM	> 50000 nM	–
COc1ccccc1C1CC1COC(=O)NC(CC(C)C)C(=O)NC(CC1CCNC1=O)C(O)S(=O)(=O)O (stereo not shown) [11d]	120 ± 50 nM	> 50000 nM	> 50000 nM	> 50000 nM	> 50000 nM	270 ± 60 nM	> 50000 nM	> 50000 nM	20 ± 20 nM	140 ± 50 nM	70 ± 10 nM	–	–	–	12 nM
CC(C)CC(NC(=O)OCC1CC1c1cccc(F)c1)C(=O)NC(CC1CCNC1=O)C(O)S(=O)(=O)O (stereo not shown) [5d]	50 ± 20 nM	> 50000 nM	> 50000 nM	> 50000 nM	> 50000 nM	230 ± 80 nM	> 50000 nM	> 50000 nM	20 ± 20 nM	190 ± 20 nM	70 ± 30 nM	–	–	–	–
